By IC50 is commonly meant the concentration at which inhibition is half-maximal.

The values below come from patent publication US11168095B2, “ASK1 inhibiting agents” (BIOGEN MA INC., priority 2017, dated 2021).

Read-outs that look alike come from different tables or passages of the source. Bounds are passed on as bounds.

One assay addresses ASK1/MAP3K5 (Homo sapiens (Human), UniProt Q99683). Put plainly: ASK1/MAP3K5 assay by Reaction Biology Corp. Type of assay: biochemical. The protocol:
ASK1/MAP3K5 was used as the protein kinase and 20 μM of myelin basic protein (MBP) and 10 μM ATP were used as the substrate.

Assay [1] deals with ASK1 T838 auto phosphorylation in HEK-293T cells (Homo sapiens (Human), UniProt Q99683). The assay is described as follows: ASK1 (AUTO PHOS T838) assay, MSD format. As to conditions: HEK 293T cells transfected with ASK1-V5 full length plasmid, compounds 1 hr at 37° C.; read-out: IC50. Type of assay: cell-based. The protocol: The plates were incubated at 37° C. overnight. Media on plates was changed to OPTI-MEM, serum free media and cells were transfected with 9 μg of ASK1-V5 tagged full length plasmid using Lipofectamine 2000 (Invitrogen) and the plates were incubated at 37° C. overnight. Cells were trypsinized, counted on Nexcellometer and plated into 96 well tissue culture plates with 100,000 cells/well and 200 μL media. Cells were incubated for 4 hr at 37° C. then ASK1 compounds were added using a HP 300e. Compounds were tested at 20 μM with 3 fold, 10 point dilution points then incubated for 1 hr at 37° C. A lysis buffer (Cell Signaling) was prepared with protease and phosphatase inhibitor and maintained at 4° C. until use. Media from cells was discarded and 120 μL of cold lysis buffer was added to the cells, the plate was shaken 4° C. for 1 hr. Lysate was mixed using Apricot liquid handler; aspirating up and down 16 times at high speed using 50 μL volume. […] Plates were then incubated on a plate shaker overnight at 4° C. Plates were washed 3× with MSD wash buffer and 50 μL of rabbit anti-pASK1 T838 antibody was added to the wells and incubated for 2 hr at room temperature on a plate shaker. Plates were then washed and 50 μL of goat anti-rabbit sulfa-tag (1:500 dilution) was added to wells, and incubated for 1 hr at room temperature on a plate shaker. […] Plates were immediately read on a MSD Instrument Reader where chemoluminecense signal was measured. Data was analyzed using Graph Pad or Genedata, the data was normalized and plotted, % activity versus log of compound concentration. The IC50 values were obtained from a 4 parameter fit.
ASK1 T838 auto phosphorylation in HEK-293T cells, sequence (Q99683 whole entry): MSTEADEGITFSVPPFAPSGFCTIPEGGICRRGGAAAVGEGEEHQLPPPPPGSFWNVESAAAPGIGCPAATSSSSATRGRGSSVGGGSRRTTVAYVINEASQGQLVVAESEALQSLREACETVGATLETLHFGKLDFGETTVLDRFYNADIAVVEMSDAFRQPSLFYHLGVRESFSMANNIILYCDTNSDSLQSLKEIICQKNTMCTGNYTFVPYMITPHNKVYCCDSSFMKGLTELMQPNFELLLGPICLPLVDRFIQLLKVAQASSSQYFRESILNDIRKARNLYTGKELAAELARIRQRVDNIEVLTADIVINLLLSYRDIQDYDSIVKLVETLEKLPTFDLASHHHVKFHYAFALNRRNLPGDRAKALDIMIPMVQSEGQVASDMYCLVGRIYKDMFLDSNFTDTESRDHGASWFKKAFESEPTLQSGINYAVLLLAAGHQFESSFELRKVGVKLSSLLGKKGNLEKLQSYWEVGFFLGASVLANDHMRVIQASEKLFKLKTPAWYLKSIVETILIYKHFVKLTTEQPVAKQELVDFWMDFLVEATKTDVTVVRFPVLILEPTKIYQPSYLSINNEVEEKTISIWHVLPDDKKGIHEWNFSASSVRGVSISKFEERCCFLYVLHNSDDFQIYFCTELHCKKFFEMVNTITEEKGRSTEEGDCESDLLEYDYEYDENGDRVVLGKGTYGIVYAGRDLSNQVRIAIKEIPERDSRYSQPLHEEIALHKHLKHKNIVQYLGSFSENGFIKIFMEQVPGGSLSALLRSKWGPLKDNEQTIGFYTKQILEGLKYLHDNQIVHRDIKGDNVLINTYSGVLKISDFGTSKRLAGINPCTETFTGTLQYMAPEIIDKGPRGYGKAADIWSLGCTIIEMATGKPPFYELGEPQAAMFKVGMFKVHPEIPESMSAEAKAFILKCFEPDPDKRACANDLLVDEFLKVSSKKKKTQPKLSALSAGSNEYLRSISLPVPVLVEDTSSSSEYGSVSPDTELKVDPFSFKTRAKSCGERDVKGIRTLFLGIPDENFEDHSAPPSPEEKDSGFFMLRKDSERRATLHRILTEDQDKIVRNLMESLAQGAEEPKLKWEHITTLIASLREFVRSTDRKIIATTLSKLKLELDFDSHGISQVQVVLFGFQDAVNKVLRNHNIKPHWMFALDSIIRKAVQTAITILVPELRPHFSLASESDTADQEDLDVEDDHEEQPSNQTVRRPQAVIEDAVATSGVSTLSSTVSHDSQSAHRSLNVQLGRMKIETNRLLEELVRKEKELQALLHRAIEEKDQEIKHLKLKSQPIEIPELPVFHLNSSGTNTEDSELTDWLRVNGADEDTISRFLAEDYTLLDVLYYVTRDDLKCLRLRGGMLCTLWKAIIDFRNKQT

[2] abbreviates: 20 μM myelin basic protein (MBP), 10 μM ATP.

ASK1/MAP3K5, sequence (Q99683 whole entry): as above

Take `CN(C)CCOc1cc2c(cc1F)OCCCCn1cnnc1-c1cccc(n1)NC2=O` [Example 76, 5^5-(2-(Dimethylamino)ethoxy)-5^4-fluoro-1^4H-6-oxa-3-aza-2(2,6)-pyridina-1(3,4)-triazola-5(1,2)-benzenacyclodecaphan-4-one]: the IC50 against ASK1/MAP3K5 was below 100 nM; in assay [1] it was below 1000 nM.
As to `CN1CC=C(c2ccc3c(c2)OCCCCn2cnnc2-c2cccc(n2)NC3=O)CC1` [Example 78, 5^4-(1-Methyl-1,2,3,6-tetrahydropyridin-4-yl)-1^4H-6-oxa-3-aza-2(2,6)-pyridina-1(3,4)-triazola-5(1,2)-benzenacyclodecaphan-4-one], the IC50 was below 100 nM on ASK1/MAP3K5 and below 1000 nM in assay [1].
As to `CN1CCC(c2ccc3c(c2)OCCCCn2cnnc2-c2cccc(n2)NC3=O)CC1` [Example 79, 5^4-(1-Methylpiperidin-4-yl)-1^4H-6-oxa-3-aza-2(2,6)-pyridina-1(3,4)-triazola-5(1,2)-benzenacyclodecaphan-4-one], the IC50 on ASK1/MAP3K5 (setting [2]) is below 100 nM; in assay [1] it was below 1000 nM.
For `O=C1Nc2cccc(n2)-c2nncn2CCCCOc2cc(N3CCOCC3)ccc21` [Example 80, 5^4-Morpholino-1^4H-6-oxa-3-aza-2(2,6)-pyridina-1(3,4)-triazola-5(1,2)-benzenacyclodecaphan-4-one], in that order: below 100 nM and below 1000 nM.
On the same counts, the results for `CN1CCN(c2ccc3c(c2)OCCCCn2cnnc2-c2cccc(n2)NC3=O)CC1` [Example 81, 5^4-(4-Methylpiperazin-1-yl)-1^4H-6-oxa-3-aza-2(2,6)-pyridina-1(3,4)-triazola-5(1,2)-benzenacyclodecaphan-4-one] are below 100 nM and below 1000 nM.
For `C[C@H]1CN(C)CCN1c1ccc2c(c1)OCCCCn1cnnc1-c1cccc(n1)NC2=O` [Example 82, (S)-5^4-(2,4-Dimethylpiperazin-1-yl)-1^4H-6-oxa-3-aza-2(2,6)-pyridina-1(3,4)-triazola-5(1,2)-benzenacyclodecaphan-4-one], in that order: below 100 nM and below 1000 nM.
Consider `C[C@@H]1CN(C)CCN1c1ccc2c(c1)OCCCCn1cnnc1-c1cccc(n1)NC2=O` [Example 83, (R)-5^4-(2,4-Dimethylpiperazin-1-yl)-1^4H-6-oxa-3-aza-2(2,6)-pyridina-1(3,4)-triazola-5(1,2)-benzenacyclodecaphan-4-one], for which the 50% inhibitory concentration (IC50) against ASK1/MAP3K5 (setting [2]) was below 100 nM; in assay [1], below 1000 nM.
On the same counts, the results for `Cn1cc(-c2ccc3c(c2)OCCCCn2cnnc2-c2cccc(n2)NC3=O)cn1` [Example 84, 5^4-(1-Methyl-1H-pyrazol-4-yl)-1^4H-6-oxa-3-aza-2(2,6)-pyridina-1(3,4)-triazola-5(1,2)-benzenacyclodecaphan-4-one] are below 100 nM and below 1000 nM.
On the same counts, the results for `CN1CC=C(c2cc3c(cc2F)C(=O)Nc2cccc(n2)-c2nncn2CCCCO3)CC1` [Example 85, 5^5-Fluoro-5^4-(1-methyl-1,2,3,6-tetrahydropyridin-4-yl)-1^4H-6-oxa-3-aza-2(2,6)-pyridina-1(3,4)-triazola-5(1,2)-benzenacyclodecaphan-4-one] are below 100 nM and below 1000 nM.
With `CN1CCC(c2cc3c(cc2F)C(=O)Nc2cccc(n2)-c2nncn2CCCCO3)CC1` [Example 86, 5^5-Fluoro-5^4-(1-methylpiperidin-4-yl)-1^4H-6-oxa-3-aza-2(2,6)-pyridina-1(3,4)-triazola-5(1,2)-benzenacyclodecaphan-4-one], the IC50 is below 100 nM on ASK1/MAP3K5 (setting [2]) and below 1000 nM in assay [1].
`O=C1Nc2cccc(n2)-c2nncn2CCCCOc2cc(N3CCOCC3)c(F)cc21` [Example 87, 5^5-Fluoro-5^4-morpholino-1^4H-6-oxa-3-aza-2(2,6)-pyridina-1(3,4)-triazola-5(1,2)-benzenacyclodecaphan-4-one]: the 50% inhibitory concentration (IC50) at ASK1/MAP3K5 (setting [2]) is below 100 nM; in assay [1], below 1000 nM.
For the compound `COCCNc1cc2c(cc1F)C(=O)Nc1cccc(n1)-c1nncn1CCCCO2` [Example 88, 5^5-Fluoro-5^4-((2-methoxyethyl)amino)-1^4H-6-oxa-3-aza-2(2,6)-pyridina-1(3,4)-triazola-5(1,2)-benzenacyclodecaphan-4-one], the IC50 at ASK1/MAP3K5 (setting [2]) is below 100 nM; in assay [1], below 1000 nM.
For `C[C@H]1CCCOc2ccc(F)cc2C(=O)Nc2cccc(n2)-c2nncn21` [Example 99, (S)-5^5-Fluoro-10-methyl-1^4H-6-oxa-3-aza-2(2,6)-pyridina-1(3,4)-triazola-5(1,2)-benzenacyclodecaphan-4-one], in that order: below 100 nM and below 1000 nM.
In the case of `C[C@@H]1CCCOc2ccc(F)cc2C(=O)Nc2cccc(n2)-c2nncn21` [Example 100, (R)-5^5-Fluoro-10-methyl-1^4H-6-oxa-3-aza-2(2,6)-pyridina-1(3,4)-triazola-5(1,2)-benzenacyclodecaphan-4-one], the IC50 against ASK1/MAP3K5 (setting [2]) is 100 to 1000 nM; in assay [1], 1000 to 10000 nM.
For `C[C@H]1CCCOc2cc(F)c(Br)cc2C(=O)Nc2cccc(n2)-c2nncn21` [Example 101, (S)-5^5-Bromo-5^4-fluoro-10-methyl-1^4H-6-oxa-3-aza-2(2,6)-pyridina-1(3,4)-triazola-5(1,2)-benzenacyclodecaphan-4-one], in that order: below 100 nM and below 1000 nM.
On the same counts, the results for `C[C@@H]1CCCOc2cc(F)c(Br)cc2C(=O)Nc2cccc(n2)-c2nncn21` [Example 102, (R)-5^5-Bromo-5^4-fluoro-10-methyl-1^4H-6-oxa-3-aza-2(2,6)-pyridina-1(3,4)-triazola-5(1,2)-benzenacyclodecaphan-4-one] are 1000 to 10000 nM and above 10000 nM.
For `C[C@H]1CCCOc2cc(F)c(N3CCOCC3)cc2C(=O)Nc2cccc(n2)-c2nncn21` [Example 103, (S)-5^4-Fluoro-10-methyl-5^5-morpholino-1^4H-6-oxa-3-aza-2(2,6)-pyridina-1(3,4)-triazola-5(1,2)-benzenacyclodecaphan-4-one], in that order: below 100 nM and below 1000 nM.
With `C[C@H]1CCCOc2cc(F)c(N3CC4CC(C3)O4)cc2C(=O)Nc2cccc(n2)-c2nncn21` [Example 104, (10S)-5^5-(6-Oxa-3-azabicyclo[3.1.1]heptan-3-yl)-5^4-fluoro-10-methyl-1^4H-6-oxa-3-aza-2(2,6)-pyridina-1(3,4)-triazola-5(1,2)-benzenacyclodecaphan-4-one], the IC50 is below 100 nM at ASK1/MAP3K5 (setting [2]) and below 1000 nM in assay [1].
Take `C[C@H]1CCCOc2cc(F)c(C3=CCN(C)CC3)cc2C(=O)Nc2cccc(n2)-c2nncn21` [Example 106, (S)-5^4-Fluoro-10-methyl-5^5-(1-methyl-1,2,3,6-tetrahydropyridin-4-yl)-1^4H-6-oxa-3-aza-2(2,6)-pyridina-1(3,4)-triazola-5(1,2)-benzenacyclodecaphan-4-one]: the 50% inhibitory concentration (IC50) on ASK1/MAP3K5 (setting [2]) was below 100 nM; in assay [1] it was below 1000 nM.
For `C[C@H]1CCCOc2cc(F)c(C3CCN(C)CC3)cc2C(=O)Nc2cccc(n2)-c2nncn21` [Example 107, (S)-5^4-Fluoro-10-methyl-5^5-(1-methylpiperidin-4-yl)-1^4H-6-oxa-3-aza-2(2,6)-pyridina-1(3,4)-triazola-5(1,2)-benzenacyclodecaphan-4-one], in that order: below 100 nM and below 1000 nM.
